This passage reports IC50 results from patent US8569344B2, “N-piperidinyl acetamide derivatives as calcium channel blockers” (Zalicus Pharmaceuticals Ltd., priority 2008, dated 2013).

Test [1] deals with T1, human α1G T-type channels (Homo sapiens, UniProt O43497).
T1 construct: expressed in transfected cells; host or cells: HEK 293
Briefly: T-type calcium channel block, whole cell patch clamp in HEK cells (α1G). As to conditions: HEK cells, patch clamp, mainly non-inactivated protocol; values above 10 μM shown as 10 μM, below 0.30 μM shown as 0.30 μM; read-out: T-type Calcium Channel Block α1G IC50. It counts as cell-based. (In general: The patch-clamp technique gives a direct electrical read-out from membranes.)

The target of test [2] is T2, human α1H T-type channels (Homo sapiens, UniProt O95180).
T2 construct: expressed in transfected cells; host or cells: HEK 293
Briefly: T-type calcium channel block, whole cell patch clamp in HEK cells (α1H). It counts as cell-based. As to conditions: HEK cells, patch clamp, mainly non-inactivated protocol; values above 10 μM shown as 10 μM; read-out: T-type Calcium Channel Block α1H IC50.

T2 sequence (O95180 whole entry): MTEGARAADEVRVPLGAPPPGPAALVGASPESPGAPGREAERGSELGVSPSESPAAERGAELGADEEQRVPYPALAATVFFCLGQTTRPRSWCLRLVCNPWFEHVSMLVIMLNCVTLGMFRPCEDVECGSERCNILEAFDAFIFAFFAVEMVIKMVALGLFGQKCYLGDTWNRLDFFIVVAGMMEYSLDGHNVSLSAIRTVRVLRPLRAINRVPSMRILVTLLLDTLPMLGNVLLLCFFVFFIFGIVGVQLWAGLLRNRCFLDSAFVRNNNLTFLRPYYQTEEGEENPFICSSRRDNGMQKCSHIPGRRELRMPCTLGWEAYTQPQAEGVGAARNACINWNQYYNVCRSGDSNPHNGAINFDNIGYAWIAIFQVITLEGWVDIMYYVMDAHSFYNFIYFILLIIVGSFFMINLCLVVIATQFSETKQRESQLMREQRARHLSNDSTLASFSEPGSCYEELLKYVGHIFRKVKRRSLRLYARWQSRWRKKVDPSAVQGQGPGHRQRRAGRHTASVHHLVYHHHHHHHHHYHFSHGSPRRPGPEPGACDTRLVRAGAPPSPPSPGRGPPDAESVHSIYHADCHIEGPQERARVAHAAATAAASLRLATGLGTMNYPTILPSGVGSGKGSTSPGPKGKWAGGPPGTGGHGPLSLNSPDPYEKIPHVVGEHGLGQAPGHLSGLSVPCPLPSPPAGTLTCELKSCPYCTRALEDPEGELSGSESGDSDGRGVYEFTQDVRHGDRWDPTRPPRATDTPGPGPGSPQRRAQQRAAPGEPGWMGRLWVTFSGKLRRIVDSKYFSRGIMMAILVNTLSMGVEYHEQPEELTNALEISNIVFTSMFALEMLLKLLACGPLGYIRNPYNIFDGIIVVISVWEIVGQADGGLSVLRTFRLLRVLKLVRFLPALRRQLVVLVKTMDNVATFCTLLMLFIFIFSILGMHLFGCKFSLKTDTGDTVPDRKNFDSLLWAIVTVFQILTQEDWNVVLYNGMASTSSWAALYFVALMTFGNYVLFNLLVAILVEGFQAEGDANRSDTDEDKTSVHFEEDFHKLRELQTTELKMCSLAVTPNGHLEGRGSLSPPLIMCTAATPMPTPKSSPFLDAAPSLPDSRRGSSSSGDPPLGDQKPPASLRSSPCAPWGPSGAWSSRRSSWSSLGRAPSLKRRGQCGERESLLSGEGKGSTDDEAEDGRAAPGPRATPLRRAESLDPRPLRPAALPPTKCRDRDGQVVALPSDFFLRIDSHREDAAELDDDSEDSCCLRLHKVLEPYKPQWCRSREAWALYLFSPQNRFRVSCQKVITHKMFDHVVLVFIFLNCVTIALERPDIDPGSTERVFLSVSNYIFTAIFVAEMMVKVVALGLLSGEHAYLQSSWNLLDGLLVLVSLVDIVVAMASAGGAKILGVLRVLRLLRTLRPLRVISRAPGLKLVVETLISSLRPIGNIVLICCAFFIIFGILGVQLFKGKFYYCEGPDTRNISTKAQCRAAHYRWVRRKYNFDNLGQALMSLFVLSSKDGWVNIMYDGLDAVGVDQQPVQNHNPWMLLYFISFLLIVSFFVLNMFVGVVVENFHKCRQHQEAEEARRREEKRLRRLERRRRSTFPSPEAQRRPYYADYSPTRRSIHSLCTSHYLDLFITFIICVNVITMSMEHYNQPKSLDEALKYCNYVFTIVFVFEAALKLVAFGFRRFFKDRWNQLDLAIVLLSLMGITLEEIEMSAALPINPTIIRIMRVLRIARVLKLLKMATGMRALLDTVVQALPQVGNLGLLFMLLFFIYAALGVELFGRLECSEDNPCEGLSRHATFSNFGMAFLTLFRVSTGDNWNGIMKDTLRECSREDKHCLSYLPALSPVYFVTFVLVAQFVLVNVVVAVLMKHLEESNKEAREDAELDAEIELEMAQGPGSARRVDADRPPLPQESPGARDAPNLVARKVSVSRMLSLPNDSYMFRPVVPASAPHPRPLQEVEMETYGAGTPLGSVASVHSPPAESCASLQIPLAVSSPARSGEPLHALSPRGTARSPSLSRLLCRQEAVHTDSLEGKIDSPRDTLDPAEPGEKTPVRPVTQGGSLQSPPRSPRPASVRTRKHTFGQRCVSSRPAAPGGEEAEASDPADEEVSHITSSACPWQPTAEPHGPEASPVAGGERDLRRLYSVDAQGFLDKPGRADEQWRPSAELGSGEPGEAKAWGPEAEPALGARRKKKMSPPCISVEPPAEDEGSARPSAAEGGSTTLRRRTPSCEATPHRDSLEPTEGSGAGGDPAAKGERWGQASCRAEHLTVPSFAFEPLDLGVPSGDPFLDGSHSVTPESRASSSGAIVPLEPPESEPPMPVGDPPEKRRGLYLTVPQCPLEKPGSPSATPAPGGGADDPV
T1 sequence (O43497 whole entry): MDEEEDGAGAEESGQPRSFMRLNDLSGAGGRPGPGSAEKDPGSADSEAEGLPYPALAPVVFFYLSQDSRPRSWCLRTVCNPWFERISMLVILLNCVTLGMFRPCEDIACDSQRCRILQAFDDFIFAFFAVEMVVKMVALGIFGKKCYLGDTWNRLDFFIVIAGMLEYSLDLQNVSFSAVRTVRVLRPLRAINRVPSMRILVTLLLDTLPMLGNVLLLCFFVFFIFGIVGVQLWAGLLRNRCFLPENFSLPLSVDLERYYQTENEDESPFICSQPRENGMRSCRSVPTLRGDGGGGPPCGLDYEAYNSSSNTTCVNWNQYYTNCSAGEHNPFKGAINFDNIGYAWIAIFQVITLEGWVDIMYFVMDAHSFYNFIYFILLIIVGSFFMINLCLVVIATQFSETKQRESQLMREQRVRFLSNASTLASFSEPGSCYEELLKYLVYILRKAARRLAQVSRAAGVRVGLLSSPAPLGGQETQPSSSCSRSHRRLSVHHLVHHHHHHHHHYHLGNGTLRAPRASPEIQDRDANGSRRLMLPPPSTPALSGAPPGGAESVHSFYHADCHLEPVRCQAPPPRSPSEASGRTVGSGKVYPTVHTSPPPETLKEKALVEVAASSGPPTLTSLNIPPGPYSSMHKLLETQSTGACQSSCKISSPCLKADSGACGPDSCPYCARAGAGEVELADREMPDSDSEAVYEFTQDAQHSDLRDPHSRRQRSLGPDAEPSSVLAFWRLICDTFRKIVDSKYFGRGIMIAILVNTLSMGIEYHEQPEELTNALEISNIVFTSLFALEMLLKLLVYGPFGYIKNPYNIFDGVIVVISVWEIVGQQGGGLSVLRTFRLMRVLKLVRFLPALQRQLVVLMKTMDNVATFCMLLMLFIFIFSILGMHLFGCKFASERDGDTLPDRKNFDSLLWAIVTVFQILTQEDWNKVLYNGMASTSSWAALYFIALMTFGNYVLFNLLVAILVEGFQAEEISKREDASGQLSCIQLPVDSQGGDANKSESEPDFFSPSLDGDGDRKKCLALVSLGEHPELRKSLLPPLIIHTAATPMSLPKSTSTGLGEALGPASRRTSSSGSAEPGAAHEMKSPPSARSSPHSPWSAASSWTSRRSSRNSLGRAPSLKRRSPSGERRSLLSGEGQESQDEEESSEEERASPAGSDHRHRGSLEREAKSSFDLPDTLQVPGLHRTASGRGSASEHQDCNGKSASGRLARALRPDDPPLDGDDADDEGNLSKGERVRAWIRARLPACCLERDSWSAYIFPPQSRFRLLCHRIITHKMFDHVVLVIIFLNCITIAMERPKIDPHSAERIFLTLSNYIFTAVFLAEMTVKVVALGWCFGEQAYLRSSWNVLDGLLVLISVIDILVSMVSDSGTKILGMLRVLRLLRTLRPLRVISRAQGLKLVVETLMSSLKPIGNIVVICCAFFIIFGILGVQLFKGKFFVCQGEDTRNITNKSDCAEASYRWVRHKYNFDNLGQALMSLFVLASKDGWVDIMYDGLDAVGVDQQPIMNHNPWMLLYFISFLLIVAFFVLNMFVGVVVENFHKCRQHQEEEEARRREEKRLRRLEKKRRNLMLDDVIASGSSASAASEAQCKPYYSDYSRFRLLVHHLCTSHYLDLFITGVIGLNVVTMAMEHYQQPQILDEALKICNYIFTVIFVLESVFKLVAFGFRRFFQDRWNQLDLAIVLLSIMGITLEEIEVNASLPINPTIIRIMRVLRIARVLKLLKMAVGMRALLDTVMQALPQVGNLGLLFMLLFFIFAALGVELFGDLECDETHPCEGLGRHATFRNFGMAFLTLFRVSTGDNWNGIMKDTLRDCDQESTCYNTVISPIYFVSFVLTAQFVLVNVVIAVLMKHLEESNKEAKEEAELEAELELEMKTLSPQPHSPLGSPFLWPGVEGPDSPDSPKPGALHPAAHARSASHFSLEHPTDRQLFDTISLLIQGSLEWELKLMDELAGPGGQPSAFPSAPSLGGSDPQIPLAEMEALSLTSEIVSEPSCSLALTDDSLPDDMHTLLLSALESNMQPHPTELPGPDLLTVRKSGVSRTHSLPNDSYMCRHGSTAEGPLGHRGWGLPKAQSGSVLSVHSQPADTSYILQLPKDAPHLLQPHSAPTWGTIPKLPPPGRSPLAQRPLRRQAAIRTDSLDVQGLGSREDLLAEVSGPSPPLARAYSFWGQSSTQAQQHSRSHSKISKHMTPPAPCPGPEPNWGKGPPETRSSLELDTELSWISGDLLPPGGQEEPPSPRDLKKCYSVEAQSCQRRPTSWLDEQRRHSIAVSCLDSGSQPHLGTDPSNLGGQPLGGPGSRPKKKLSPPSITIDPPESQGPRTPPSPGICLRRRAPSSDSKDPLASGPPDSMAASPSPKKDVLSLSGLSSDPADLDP

In general, IC50 refers to the concentration at which inhibition is half-maximal. Consider `CC1(NC(=O)CN2CCC(CNC(=O)c3cccc(Br)c3)CC2)CCC1` [Compound 480, 3-bromo-N-((1-(2-(1-methylcyclobutylamino)-2-oxoethyl)piperidin-4-yl)methyl) benzamide], for which the IC50 was below 300 nM in test [1] and 180 nM in test [2].

`CC1(NC(=O)CN2CCC(CNC(=O)c3cccc(Cl)c3)CC2)CCC1` [Compound 481, 3-chloro-N-((1-(2-(1-methylcyclo-butylamino)-2-oxoethyl)piperidin-4-yl)methyl)benzamide]: the values for the IC50 in test [1] and in test [2] were below 300 nM and 250 nM, respectively.

On to `CC1(NC(=O)CN2CCC(CNC(=O)c3cccc(OC(F)(F)F)c3)CC2)CCC1` [Compound 483, N-((1-(2-(1-methylcyclobutylamino)-2-oxoethyl)piperidin-4-yl)methyl)-3-(trifluoromethoxy)benzamide], for which the IC50 was below 300 nM in test [1] and 110 nM in test [2].

For the compound `CCONC(=O)CN1CCC(CNC(=O)c2cc(C(F)(F)F)cc(C(F)(F)F)c2)CC1` [Compound 486, N-((1-(2-(ethoxyamino)-2-oxoethyl)piperidin-4-yl)methyl)-3,5-bis(trifluoromethyl)benzamide], the IC50 in test [1] and in test [2] was above 10000 nM in each case.

With `Cc1cc(C)cc(C(=O)NCC2CCN(CCNC(=O)C(C)(C)C(F)(F)F)CC2)c1` [Compound 488, 3,5-dimethyl-N-((1-(2-(3,3,3-trifluoro-2,2-dimethylpropanamido)ethyl)piperidin-4-yl)methyl)benzamide], the IC50 in test [1] came to 420 nM; in test [2], 130 nM.

For `COc1cc(OC)cc(C(=O)NCC2CCN(CCNC(=O)C(C)(C)C(F)(F)F)CC2)c1` [Compound 491, 3,5-dimethoxy-N-((1-(2-(3,3,3-trifluoro-2,2-dimethylpropanamido)ethyl)piperidin-4-yl)methyl)benzamide], the IC50 was below 300 nM in test [1] and 190 nM in test [2].

Take `CC(C)(C(=O)NCCN1CCC(CNC(=O)c2cccc(Cl)c2)CC1)C(F)(F)F` [Compound 494, 3-chloro-N-((1-(2-(3,3,3-trifluoro-2,2-dimethylpropanamido)ethyl)piperidin-4-yl)methyl)benzamide]: the IC50 in test [1] is below 300 nM; in test [2], 160 nM.

Regarding `CC(C)(C(=O)NCCN1CCC(CNC(=O)c2cccc(OC(F)(F)F)c2)CC1)C(F)(F)F` [Compound 496, N-((1-(2-(3,3,3-trifluoro-2,2-dimethylpropanamido)ethyl)piperidin-4-yl)methyl)-3-(trifluoromethoxy)benzamide], the figures for the IC50 in test [1] and in test [2] were below 300 nM and 90 nM, respectively.

With `Cc1cc(C)cc(C(=O)NCC2CCN(CCNC(=O)C3(C(F)(F)F)CC3)CC2)c1` [Compound 497, 3,5-dimethyl-N-((1-(2-(1-(trifluoromethyl)cyclopropanecarbox-amido)ethyl)piperidin-4-yl)methyl) benzamide], the figures for the IC50 in test [1] and in test [2] were 770 nM and 160 nM, respectively.

For `Cc1cc(F)cc(C(=O)NCC2CCN(CCNC(=O)C3(C(F)(F)F)CC3)CC2)c1` [Compound 498, 3-fluoro-5-methyl-N-((1-(2-(1-(trifluoromethyl)cyclopropanecarbox-amido)ethyl)piperidin-4-yl)methyl) benzamide], the IC50 in test [1] is 770 nM; in test [2], 220 nM.

For `O=C(NCC1CCN(CCNC(=O)C2(C(F)(F)F)CC2)CC1)c1cccc(Cl)c1` [Compound 502, 3-chloro-N-((1-(2-(1-(trifluoromethyl)cyclopropanecarbox-amido)ethyl)piperidin-4-yl)methyl) benzamide], the IC50 was 590 nM in test [1] and 230 nM in test [2].

In the case of `CC(C)(C)N/C(CN1CCC(CNC(=O)c2cc(C(F)(F)F)cc(C(F)(F)F)c2)CC1)=N\C#N` [Compound 503, (Z)-N-((1-(2-(tert-buylamino)-2-(cyanoimino)ethyl)piperidin-4-yl)methyl)-3,5-bis(trifluoromethyl) benzamide], the IC50 in test [1] is 1550 nM; in test [2], 7200 nM.

On to `O=C(NCC1CCN(CC(=O)N2CCC[C@@H]2C(F)(F)F)CC1)c1cc(F)cc(Cl)c1` [Compound 504, (R)-3-chloro-5-fluoro-N-((1-(2-oxo-2-(2-(trifluoromethyl)pyrrolidin-1-yl)ethyl)piperidin-4-yl)methyl) benzamide], for which the IC50 in test [1] and in test [2] was 420 nM in each case.

For the compound `COc1cc(F)cc(C(=O)NCC2CCN(CC(=O)N3CCC[C@@H]3C(F)(F)F)CC2)c1` [Compound 505, (R)-3-fluoro-5-methoxy-N-((1-(2-oxo-2-(2-(trifluoromethyl)pyrrolidin-1-yl)ethyl)piperidin-4-yl)methyl) benzamide], the IC50 in test [1] was 770 nM; in test [2] it was 580 nM.

Take `Cc1cc(F)cc(C(=O)NCC2CCN(CC(=O)N3CCC[C@@H]3C(F)(F)F)CC2)c1` [Compound 506, (R)-3-fluoro-5-methyl-N-((1-(2-oxo-2-(2-(trifluoromethyl)pyrrolidin-1-yl)ethyl)piperidin-4-yl)methyl) benzamide]: the IC50 in test [1] amounted to 5360 nM; in test [2], 1480 nM.

For the compound `O=C(NCC1CCN(CC(=O)N2CCC[C@@H]2C(F)(F)F)CC1)c1cccc(Cl)c1` [Compound 507, (R)-3-chloro-N-((1-(2-oxo-2-(2-(trifluoromethyl)pyrrolidin-1-yl)ethyl)piperidin-4-yl)methyl) benzamide], the IC50 in test [1] was found to be 2980 nM; in test [2] it was 1480 nM.

Consider `O=C(NCC1CCN(CC(=O)N2CCC[C@@H]2C(F)(F)F)CC1)c1cccc(F)c1` [Compound 508, (R)-3-fluoro-N-((1-(2-oxo-2-(2-(trifluoromethyl)pyrrolidin-1-yl)ethyl)piperidin-4-yl)methyl) benzamide], for which the IC50 in test [1] is above 10000 nM; in test [2], 9220 nM.

For `CC(C)(C)N/C(CN1CCC(CNC(=O)c2cc(F)cc(C(F)(F)F)c2)CC1)=N\C#N` [Compound 510, (Z)-N-((1-(2-(tert-butylamino)-2-(cyanoimino)ethyl)piperidin-4-yl)methyl)-3-fluoro-5-(trifluoromethyl) benzamide], the IC50 in test [1] is 3970 nM; in test [2], above 10000 nM.

Regarding `O=C(NCC1CCN(CCNC(=O)C2(C(F)(F)F)CCC2)CC1)c1cccc(Cl)c1` [Compound 512, 3-chloro-N-((1-(2-(1-(trifluoromethyl)cyclobutanecarboxamido)ethyl)piperidin-4-yl)methyl)benzamide], the IC50 in test [1] is below 300 nM; in test [2], 190 nM.

Turning to `CC(C)(C)NS(=O)(=O)CCN1CCC(CNC(=O)c2cc(F)cc(C(F)(F)F)c2)CC1` [Compound 514, N-((1-(2-(N-tert-butylsulfamoyl)ethyl)piperidin-4-yl)methyl)-3-fluoro-5-(trifluoromethyl)benzamide], the figures for the IC50 in test [1] and in test [2] were below 300 nM and 310 nM, respectively.

Take `CN(CCN1CCC(CNC(=O)c2cc(F)cc(C(F)(F)F)c2)CC1)C(=O)C(C)(C)C` [Compound 515, 3-fluoro-N-((1-(2-(N-methylpivalamido)ethyl)piperidin-4-yl)methyl)-5-(trifluoromethyl)benzamide]: the IC50 in test [1] and in test [2] was 310 nM each time.

Regarding `CN(CCN1CCC(CNC(=O)c2cc(F)cc(C(F)(F)F)c2)CC1)C(=O)C1CCCC1` [Compound 516, 3-fluoro-N-((1-(2-(N-methylcyclopentanecarboxamido)ethyl)piperidin-4-yl)methyl)-5-(trifluoromethyl)benzamide], the IC50 in test [1] came to 460 nM; in test [2], 220 nM.

Regarding `CN(CCN1CCC(CNC(=O)c2cc(F)cc(C(F)(F)F)c2)CC1)C(=O)CCC(F)(F)F` [Compound 517, 3-fluoro-N-((1-(2-(4,4,4-trifluoro-N-methylbutanamido)ethyl)piperidin-4-yl)methyl)-5-(trifluoromethyl)benzamide], the figures for the concentration for half-maximal inhibition (IC50) in test [1] and in test [2] were 1100 nM and 420 nM, respectively.

As to `CN(CCN1CCC(CNC(=O)c2cc(F)cc(C(F)(F)F)c2)CC1)C(=O)C1(C)CC1` [Compound 518, N-((1-(2-(N,1-dimethylcyclopropanecarboxamido)ethyl)piperidin-4-yl)methyl)-3-fluoro-5-(trifluoromethyl)benzamide], the results for the IC50 in test [1] and in test [2] were 1310 nM and 810 nM, respectively.

Take `CC1CCC(C(=O)N(C)CCN2CCC(CNC(=O)c3cc(F)cc(C(F)(F)F)c3)CC2)CC1` (stereo not shown) [Compound 519, N-((1-(2-(N,4-dimethylcyclohexanecarboxamido)ethyl)piperidin-4-yl)methyl)-3-fluoro-5-(trifluoromethyl)benzamide]: the IC50 in test [1] was below 300 nM; in test [2], 240 nM.

For `CN(CCN1CCC(CNC(=O)c2cc(F)cc(C(F)(F)F)c2)CC1)C(=O)C1(C(F)(F)F)CC1` [Compound 520, 3-fluoro-N-((1-(2-(N-methyl-1-(trifluoromethyl)cyclopropanecarbox-amido)ethyl)piperidin-4-yl)methyl)-5-(trifluoromethyl)benzamide], the values for the IC50 in test [1] and in test [2] were below 300 nM and 190 nM, respectively.

As to `CN(CCN1CCC(CNC(=O)c2cc(F)cc(C(F)(F)F)c2)CC1)C(=O)C1(C(F)(F)F)CCCC1` [Compound 522, 3-fluoro-N-((1-(2-(N-methyl-1-(trifluoromethyl)cyclopentanecarbox-amido)ethyl)piperidin-4-yl)methyl)-5-(trifluoromethyl)benzamide], the half-maximal inhibitory concentration (IC50) in test [1] was below 300 nM; in test [2], 140 nM.

`CN(CCN1CCC(CNC(=O)c2cc(F)cc(C(F)(F)F)c2)CC1)C(=O)NC(C)(C)C` [Compound 523, N-((1-(2-(3-tert-butyl-1-methylureido)ethyl)piperidin-4-yl)methyl)-3-fluoro-5-(trifluoromethyl) benzamide]: the IC50 in test [1] is 5740 nM; in test [2], 910 nM.

Take `CCNC(=O)N(C)CCN1CCC(CNC(=O)c2cc(F)cc(C(F)(F)F)c2)CC1` [Compound 524, N-((1-(2-(3-ethyl-1-methylureido)ethyl)piperidin-4-yl)methyl)-3-fluoro-5-(trifluoromethyl) benzamide]: the IC50 in test [1] and in test [2] was above 10000 nM throughout.
